Measurements reported in patent US10287259B2, “Selenazolidine and thiazolidine compounds for treating cancer and other diseases” (The Penn State Research Foundation, priority 2016, dated 2019).

Experiments:
Type in all cases: cell-based
Panc-1 cells [1] = test: MTT cell viability assay, Panc-1
Description: (§1) MTT (3-(4,5-dimethylthiazol-2-yl)-2,5-diphenyltetrazolium) assay was performed to determine the effect of AS-10 on cancer cell viability (Plano et al., 2016, J. Med. Chem. 1946-1959; Alcolea et al., 2012, Eur. J. Med. Chem. 113:134-144; Kumar et al., 2014, Eur. J. Med. Chem. 81:267-276). Briefly, 3×10^3 cells were treated with different concentrations of AS-10 in triplicate in a 96-well plate for different time points. MTT solution (20 μL of 5.0 mg/mL solution) was added to each well, three hours prior to termination time point and incubated at 37° C. Resultant formazan crystals, at termination time point, were dissolved in 50 μL DMSO. The plate was subjected to a 96-well multiscanner (Dynex Technologies, MRX Revelation; Chantilly, Va., USA) for measuring the optical densities at 570 nm and 630 nm. IC50 values were determined by performing non-linear regression using Graphpad Prism software.
To test the anti-cancer activity of AS-10 in pancreatic cancer (PC) cell lines, a MTT assay was performed. PC cell lines, Panc-1 and BxPC3, were treated with AS-10 at different doses at different time points (24, 48, and 72 h). Resulting cells were subjected to MTT cell viability assay. […] Panc-1 cells were treated with different doses of AS-10 for 48 h. After 48 h, live cells were counted and plated in a new petri dish. Cells were allowed to form colonies for 17 days. At the end of 17 days the colonies were counted and compared to the untreated cells.

Lung cancer cells (A549) = test: MTT cell viability assay, A549; settings: A549, 48 h (FIG. 5C); acetate functionality removed
Description: as §1

pancreatic cancer cells = test: MTT cell viability assay, pancreatic cancer (PC) cells; settings: screening
Description: as §1

LNCaP cells = test: MTT cell viability test, LNCaP
Description: as §1

Panc-1 cells [2] = test: Western blot analysis of Panc-1 lysates; settings: Panc-1, 48 h; low dose AS-10 2.5 μM, gemcitabine 50 μM
Description: Whole-cell lysates were made by subjecting AS-10 treated Panc-1 cells to RIPA lysis buffer (Thermo Scientific, USA) containing protease (Roche, USA) and phosphatase inhibitor cocktails (Sigma-Aldrich, USA) (Plano et al., 2016, J. Med. Chem. 1946-1959). Lysates were spun at 15,000 rpm for 10 minutes. Resulting supernatant was stored at −80° C. until use. NuPAGE gel 4-12% (Life Technologies, Carlsbad, Calif.) was used to resolve the lysates, followed by electro-transfer to PVDF membrane. After the transfer membrane was blocked with 5% non-fat milk and probed with different antibodies. Protein of interest were detected by using enhanced Chemiluminescent reagent (Life technologies, USA). Blots were stripped using Restore Western blot stripping buffer (Thermo Scientific, USA) to save time and samples.

Panc-1 cells [3] = test: Muse Live/dead Annexin V assay; settings: Panc-1, 48 h; AS-10 2.5 μM, gemcitabine 50 μM
Description: Muse Annexin V & Dead Cell kit was used to determine the apoptosis cells in AS-10 treated Panc-1 cells (Plano et al., 2016, J. Med. Chem. 1946-1959). The Muse Annexin V & Dead cell assay contains Annexin V to detect phosphatidylserine (PS) on the outer surface of cells. The kit also contains a dead cell marker, 7-amino-actinomycin D (7-AAD). […] In brief, Panc-1 (1.5×10^5) cells were treated with a given dose of AS-10 or DMSO for appropriate time (0, 6, 12, 24, 36, or 48 h). Both floating cells as well as adherent cells were collected and subjected for Annexin V staining using Muse Annexin V & Dead Cell kit with Muse cell analyzer (EMD Millipore, Billerica, Mass., USA). The obtained data were analyzed using Muse 1.4 software.

Panc-1 cells [4] = test: Live/dead assay with calcein-AM and ethidium bromide; settings: Panc-1, 48 h; AS-10 2.5 μM, gemcitabine 50 μM
Description: To determine the dead cell population, we used LIVE/DEAD Viability/Cytotoxicity Kit (L3224, Life technologies, USA). Panc-1 cells were treated with either DMSO, gemcitabine (50 μM), or AS-10 (2.5 μM) or in combination for 48 h. Live and dead cells were determined by subjecting treated cells to LIVE/DEAD Viability/Cytotoxicity Kit (Plano et al., 2016, J. Med. Chem. 1946-1959). […] While ethidium homodimer-1 can only enter cells who have lost their plasma membrane integrity or dead cells and fluorescents red. Stained cells were visualized using a fluorescence microscope (Zeiss—Axio Scope.A1) with a 20× objective lens. Percentage values of live and dead cells were calculated.

## CC(=O)Oc1ccccc1C(=O)/N=C1\SCCN1C(=O)c1ccccc1OC(C)=O [ASD-123, 2-((3-(2-acetoxybenzoyl)-1,3-thiazolidin-2-ylidene)carbamoyl)phenyl acetate]
Panc-1 cells [1]; Panc-1, 48 h (FIG. 5B), Se replaced by S
  potency compared to AS-10: significant loss in the potency

## O=C(/N=C1\[Se]CCN1C(=O)c1ccccc1)c1ccccc1 [ASD-171, N-(3-benzoyl-1,3-selenazolidin-2-ylidene)benzamide]
Lung cancer cells (A549)
  potency compared to AS-10: significant loss in the potency

## CC(=O)Oc1ccccc1C(=O)O [aspirin, reference compound]
Pancreatic cancer cells
  effect on PC cell lines at doses similar to AS-10: did not have any effects
LNCaP cells
  EC50 range, growth inhibition (comparison): millimolar range

## Nc1ccn([C@@H]2O[C@H](CO)[C@@H](O)C2(F)F)c(=O)n1 [gemcitabine, reference compound]
Panc-1 cells [2]
  PARP cleavage: no effect on PARP cleavage
Panc-1 cells [3]
  total apoptotic cells: ~25%
Panc-1 cells [4]
  dead cells: ~10%
Panc-1 cells [1]; highest tested dose 500 μM, 48 h
  response of Panc-1 cells to treatment: resistant
